# Assay results published in the Kinase Knowledgebase extract (Sharma et al. 2016).
# Molecular target: EGFR (human) (UniProt P00533)
# Details: a431
# Chain of EGFR (human) (P00533 whole entry, looked up): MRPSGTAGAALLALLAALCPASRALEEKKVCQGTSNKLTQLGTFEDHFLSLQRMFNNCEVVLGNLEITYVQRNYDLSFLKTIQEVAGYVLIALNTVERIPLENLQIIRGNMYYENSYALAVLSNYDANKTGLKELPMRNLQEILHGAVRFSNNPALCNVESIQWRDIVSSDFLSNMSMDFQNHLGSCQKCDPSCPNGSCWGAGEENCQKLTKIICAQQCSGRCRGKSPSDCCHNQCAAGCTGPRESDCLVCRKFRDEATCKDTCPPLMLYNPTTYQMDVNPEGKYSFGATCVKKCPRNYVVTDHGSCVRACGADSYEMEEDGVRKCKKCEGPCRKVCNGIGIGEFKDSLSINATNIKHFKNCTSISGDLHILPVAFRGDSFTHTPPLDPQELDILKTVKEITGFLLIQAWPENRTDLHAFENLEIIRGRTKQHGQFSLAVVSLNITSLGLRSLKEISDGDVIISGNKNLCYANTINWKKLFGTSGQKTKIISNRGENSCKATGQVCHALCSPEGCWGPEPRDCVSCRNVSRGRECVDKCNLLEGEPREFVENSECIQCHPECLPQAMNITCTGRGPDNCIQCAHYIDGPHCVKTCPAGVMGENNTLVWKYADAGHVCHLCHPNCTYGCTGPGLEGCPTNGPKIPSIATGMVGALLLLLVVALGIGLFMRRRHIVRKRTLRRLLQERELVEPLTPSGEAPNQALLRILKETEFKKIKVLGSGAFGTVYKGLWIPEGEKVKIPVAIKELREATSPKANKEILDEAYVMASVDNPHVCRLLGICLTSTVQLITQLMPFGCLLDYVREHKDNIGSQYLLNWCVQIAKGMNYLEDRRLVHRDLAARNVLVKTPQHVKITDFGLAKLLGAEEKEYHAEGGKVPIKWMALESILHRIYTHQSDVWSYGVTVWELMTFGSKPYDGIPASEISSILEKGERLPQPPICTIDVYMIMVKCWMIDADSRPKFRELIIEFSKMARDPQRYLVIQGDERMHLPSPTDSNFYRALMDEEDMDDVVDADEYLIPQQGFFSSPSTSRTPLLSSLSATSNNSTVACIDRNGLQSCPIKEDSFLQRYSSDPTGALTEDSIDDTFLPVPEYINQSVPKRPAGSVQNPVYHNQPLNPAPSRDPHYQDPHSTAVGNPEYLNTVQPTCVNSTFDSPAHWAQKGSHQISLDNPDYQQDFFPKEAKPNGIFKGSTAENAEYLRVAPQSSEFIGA
row,IC50 [µM],SMILES
1,0.129,C=CC(=O)N1CCC(Oc2cc3c(Nc4ccc(O)c(F)c4)ncnc3cc2OC)CC1
2,0.109,C=CC(=O)N1CCC(Oc2cc3c(Nc4ccc(O)c(Cl)c4)ncnc3cc2OC)CC1
3,0.004,C=C(CN(C)C)C(=O)N1CCC(Oc2cc3c(Nc4ccc(Cl)c(Cl)c4F)ncnc3cc2OC)CC1
4,0.0017,C=CC(=O)N1CC[C@@H](Oc2cc3c(Nc4ccc(F)c(Cl)c4F)ncnc3cc2OC)C[C@@H]1C(=O)NO
5,0.699,C=CC(=O)NCCOc1cc2c(Nc3ccc(F)c(Cl)c3F)ncnc2cc1OC
6,0.037,CC#CC(=O)N1CC[C@H](Oc2cc3c(Nc4ccc(F)c(Cl)c4F)ncnc3cc2OC)C1
7,0.3,C=CC(=O)N1CCC(Oc2cc3c(Nc4cccc(S)c4)ncnc3cc2OC)CC1
8,0.009,C=CC(=O)N1CCC(Oc2cc3c(Nc4cccc(Cl)c4C)ncnc3cc2OC)CC1
9,0.0024,C=C(CN1CCCCC1)C(=O)N1CC(Oc2cc3c(Nc4cccc(Cl)c4F)ncnc3cc2OC)C1
10,0.0046,C=CC(=O)N1CCC(Oc2cc3c(Nc4ccc(Cl)cc4)ncnc3cc2OC)CC1
11,0.038,COc1cc2ncnc(Nc3ccc(F)c(Cl)c3F)c2cc1OC1CCN(C(=O)C=C(C)C)CC1
12,0.004,COc1cc2ncnc(Nc3ccc(F)c(Cl)c3F)c2cc1O[C@H]1CCN(C(=O)/C=C/CN(C)C)C1
13,0.008,COc1cc2ncnc(Nc3cccc(Cl)c3F)c2cc1O[C@H]1CCN(C(=O)/C=C/CN(C)C)C1
14,0.039,COc1cc2ncnc(Nc3ccc(Cl)c(Cl)c3F)c2cc1OC1CCN(C(=O)/C=C/Cl)CC1
15,0.01,C=CC(=O)N1CCC(Oc2cc3c(Nc4ccc(OCc5cccc(F)c5)c(Cl)c4)ncnc3cc2OC)CC1
16,0.105,C=CC(=O)N1CCC(Oc2cc3c(Nc4ccc(Cl)c(O)c4)ncnc3cc2OC)CC1
17,0.0075,C=CC(=O)N1CC[C@H](Oc2cc3c(Nc4ccc(F)c(Cl)c4F)ncnc3cc2OC)C[C@H]1C(=O)NC(C)C
18,0.085,C/C=C/C(=O)N1CC[C@H](Oc2cc3c(Nc4ccc(F)c(Cl)c4F)ncnc3cc2OC)C1
19,0.008,COC(=O)/C=C\C(=O)N1CCC(Oc2cc3c(Nc4ccc(Cl)c(Cl)c4F)ncnc3cc2OC)CC1
20,0.035,C=CC(=O)N1CCC(Oc2cc3c(Nc4ccc(Cl)c(C#N)c4)ncnc3cc2OC)CC1
21,0.015,C=CC(=O)N1CC[C@H](Oc2cc3c(Nc4ccc(Br)cc4F)ncnc3cc2OC)C1

row,IC50 [µM],SMILES
1,0.085,COc1cc2ncnc(Nc3ccc(F)c(Cl)c3F)c2cc1O[C@H]1CCN(C(=O)/C=C/CN2CCOCC2)C1
2,0.322,COc1cc2ncnc(Nc3ccc(Cl)c(Cl)c3F)c2cc1OC1CCN(C(=O)/C=C\C(=O)O)CC1
3,0.003,C=CC(=O)N1CCC(Oc2cc3c(Nc4cccc(Cl)c4OC)ncnc3cc2OC)CC1
4,0.048,CNC(=O)/C=C/C(=O)N1CCC(Oc2cc3c(Nc4ccc(F)c(Cl)c4F)ncnc3cc2OC)CC1
5,0.017,C=CC(=O)N1CC(Oc2cc3c(Nc4cccc(C#N)c4)ncnc3cc2OC)C1
6,0.0011,C=CC(=O)N1CC[C@@H](Oc2cc3c(Nc4ccc(Br)cc4F)ncnc3cc2OC)C[C@@H]1C(N)=O
7,0.018,COc1cc2ncnc(Nc3ccc(F)c(Cl)c3F)c2cc1OCCNC(=O)/C=C/CN(C)C
8,0.032,C=CC(=O)N1CCC(Oc2cc3c(Nc4ccc(Cl)cc4O)ncnc3cc2OC)CC1
9,0.076,COc1cc2ncnc(Nc3cccc(Cl)c3F)c2cc1OC1CCN(C(=O)/C=C/CN(C)C)CC1
10,0.165,COc1cc2ncnc(Nc3ccc(Cl)c(Cl)c3F)c2cc1OC1CCN(C(=O)/C=C/CN(C)C)CC1
11,0.065,C=CC(=O)N1CCC(Oc2cc3c(Nc4ccccc4Cl)ncnc3cc2OC)CC1
12,0.036,COc1cc2ncnc(Nc3ccc(F)c(Cl)c3F)c2cc1OC1CN(C(=O)/C=C/CN(C)C)C1
13,0.041,COc1cc2ncnc(Nc3ccc(F)c(Cl)c3F)c2cc1OC1CCN(C(=O)/C=C\C(=O)O)CC1
14,0.008,C=CC(=O)N1CCC(Oc2cc3c(Nc4ccc(F)c(C#N)c4)ncnc3cc2OC)CC1
15,0.142,C=CC(=O)N1CCC(Oc2cc3c(Nc4cccc(N(C)C)c4)ncnc3cc2OC)CC1
16,0.0037,C=CC(=O)N1CCC(Oc2cc3c(Nc4cccc(C#N)c4)ncnc3cc2OC)CC1
17,0.0091,C=C(CN1CCCCC1)C(=O)N1CC(Oc2cc3c(Nc4ccc(F)c(Cl)c4F)ncnc3cc2OC)C1
18,0.008,C=CC(=O)N1CCC(Oc2cc3c(Nc4ccc(F)c(C)c4)ncnc3cc2OC)CC1
19,0.979,C=CC(=O)N1CC[C@@H](Oc2cc3c(Nc4ccc(F)c(Cl)c4F)ncnc3cc2OC)C[C@@H]1C(=O)O
20,0.179,C=CC(=O)N1CCC(Oc2cc3c(Nc4cc(Cl)c(O)c(Cl)c4)ncnc3cc2OC)CC1
21,0.033,COc1cc2ncnc(Nc3ccc(F)c(Cl)c3F)c2cc1O[C@H]1CCN(C(=O)C#CCN(C)C)C1

row,IC50 [µM],SMILES
1,0.014,COc1cc2ncnc(Nc3ccc(Cl)c(Cl)c3F)c2cc1OC1CCN(C(=O)/C=C\Cl)CC1
2,0.028,CCN(CC)C/C=C/C(=O)N1CC[C@H](Oc2cc3c(Nc4ccc(F)c(Cl)c4F)ncnc3cc2OC)C1
3,0.061,C=CC(=O)N1CCC(Oc2cc3c(NCc4cccc(Cl)c4)ncnc3cc2OC)CC1
4,0.015,COc1cc2ncnc(Nc3ccc(F)c(Cl)c3F)c2cc1OC1CN(C(=O)/C=C\CN(C)C)C1
5,0.187,COc1cc2ncnc(Nc3ccc(F)c(Cl)c3F)c2cc1OC1CCN(C(=O)/C=C/C(=O)NO)CC1
6,0.011,C=CC(=O)N1CCC(Oc2cc3c(Nc4cccc(C(F)(F)F)c4F)ncnc3cc2OC)CC1
7,0.0083,C=CC(=O)N1CC[C@H](Oc2cc3c(Nc4ccc(F)c(Cl)c4F)ncnc3cc2OC)C[C@H]1C(=O)NCCN1CCOCC1
8,0.025,CN(C)C/C=C/C(=O)N1CC[C@H](Oc2ccc3ncnc(Nc4ccc(F)c(Cl)c4F)c3c2)C1
9,0.0027,C=C(CN(C)C)C(=O)N1CCC(Oc2cc3c(Nc4ccc(F)c(Cl)c4F)ncnc3cc2OC)CC1
10,0.029,C=C(C)C(=O)N1CC(Oc2cc3c(Nc4ccc(F)c(Cl)c4F)ncnc3cc2OC)C1
11,0.516,COc1cc2ncnc(Nc3ccc(Cl)c(Cl)c3F)c2cc1OC1CCN(C(=O)/C=C/C(=O)O)CC1
12,0.176,C=CC(=O)N1CCC(Oc2cc3c(Nc4ccc(O)cc4Cl)ncnc3cc2OC)CC1
13,0.023,C=CC(=O)N1CCC(Oc2cc3c(Nc4ccc(C(C)C)cc4)ncnc3cc2OC)CC1
14,0.001,C=C(CN1CCN(C)CC1)C(=O)N1CC(Oc2cc3c(Nc4ccc(F)c(Cl)c4F)ncnc3cc2OC)C1
15,0.007,C=CC(=O)N1CCC(Oc2cc3c(Nc4ccc(Br)c(F)c4)ncnc3cc2OC)CC1
16,0.029,C=CC(=O)N1CCC(Oc2cc3c(Nc4ccc5c(c4)CCC5)ncnc3cc2OC)CC1
17,0.4,C=CC(=O)Nc1cccc(Nc2ncnc3cc(OC)c(OC4CCN(C(=O)C=C)CC4)cc23)c1
18,0.008,C=CC(=O)N1CC[C@H](Oc2cc3c(Nc4ccc(F)c(Cl)c4F)ncnc3cc2OC)C[C@H]1C(=O)NCC
19,0.001,COC(=O)/C=C\C(=O)N1CC(Oc2cc3c(Nc4cccc(Cl)c4F)ncnc3cc2OC)C1
20,0.883,C=CC(=O)N1CC(Oc2cc3c(Nc4ccc(F)c(Cl)c4F)ncnc3cc2OCCOC)C1
21,0.381,C=CC(=O)N1CC(Oc2cc3c(Nc4ccc(F)c(Cl)c4F)ncnc3cc2O)C1

row,IC50 [µM],SMILES
1,0.305,C=CC(=O)N1CCC(Oc2cc3c(Nc4cccc(SC)c4)ncnc3cc2OC)CC1
2,0.009,COc1cc2ncnc(Nc3cccc(Cl)c3F)c2cc1OC1CN(C(=O)/C=C/CN(C)C)C1
3,0.052,C#Cc1cccc(Nc2ncnc3cc(OC)c(OC4CCN(C(=O)C=C)CC4)cc23)c1
4,0.043,C=CC(=O)N1CCC(Oc2cc3c(Nc4ccc(F)c(F)c4F)ncnc3cc2OC)CC1
5,0.05,C=C(NC(C)=O)C(=O)N1CCC(Oc2cc3c(Nc4ccc(Cl)c(Cl)c4F)ncnc3cc2OC)CC1
6,0.041,CNC(=O)/C=C/C(=O)N1CC(Oc2cc3c(Nc4ccc(F)c(Cl)c4F)ncnc3cc2OC)C1
7,0.531,C=CC(=O)N1CC[C@H](Oc2cc3c(Nc4cccc(Cl)c4F)ncnc3cc2OC)C1
8,0.019,C=CC(=O)N1CC[C@H](Oc2cc3c(Nc4ccc5c(cnn5Cc5cccc(F)c5)c4)ncnc3cc2OC)C1
9,0.093,C=CC(=O)N1CCC(Oc2cc3c(Nc4ccc(Cl)c(C)c4)ncnc3cc2OC)CC1
10,0.044,C=C(CO)C(=O)N1CCC(Oc2cc3c(Nc4ccc(Cl)c(Cl)c4F)ncnc3cc2OC)CC1
11,0.01,C=C(CN1CCOCC1)C(=O)N1CCC(Oc2cc3c(Nc4ccc(F)c(Cl)c4F)ncnc3cc2OC)CC1
12,0.026,C=CC(=O)N1CCC(Oc2cc3c(Nc4cccc(CCl)c4)ncnc3cc2OC)CC1
13,0.011,C=CC(=O)N1CCC(Oc2cc3c(Nc4cccc([N+](=O)[O-])c4)ncnc3cc2OC)CC1
14,0.01,C=CC(=O)N1CC[C@H](Oc2cc3c(Nc4ccc(F)c(Cl)c4F)ncnc3cc2OC)C[C@H]1C(=O)NO
15,0.006,C=CC(=O)N1CCCC(Oc2cc3c(Nc4ccc(F)c(Cl)c4F)ncnc3cc2OC)C1 (stereo not given)
16,0.044,COc1cc2ncnc(Nc3ccc(F)c(Cl)c3F)c2cc1OC1CN(C(=O)/C=C/Cl)C1
17,0.02,C=CC(=O)N1CC[C@H](Oc2cc3c(Nc4ccc(F)c(Cl)c4F)ncnc3cc2OC)C[C@H]1C(=O)NCCCO
18,0.019,C=CC(=O)N1CCC(Oc2cc3c(Nc4ccc(C)c(C)c4)ncnc3cc2OC)CC1
19,0.006,COc1cc2ncnc(Nc3ccc(F)c(Cl)c3F)c2cc1OC1CCN(C(=O)/C=C\CN(C)C)CC1
20,0.009,COC(=O)/C=C\C(=O)N1CCC(Oc2cc3c(Nc4ccc(F)c(Cl)c4F)ncnc3cc2OC)CC1

row,SMILES,IC50 [µM]
1,C=CC(=O)N1CC[C@H](Oc2cc3c(Nc4ccc(F)c(Cl)c4F)ncnc3cc2OC)C[C@H]1C(=O)OC,0.005
2,C=CC(=O)N1CCC(Oc2cc3c(Nc4cccc(C(F)(F)F)c4)ncnc3cc2OC)CC1,0.058
3,C=CC(=O)N1CC[C@H](Oc2cc3c(Nc4ccc(F)c(Cl)c4F)ncnc3cc2OC)C[C@H]1C(=O)NC,0.0022
4,C=CC(=O)N1CC[C@@H](Oc2cc3c(Nc4ccc(F)c(Cl)c4F)ncnc3cc2OC)C[C@@H]1C(=O)NCCS(C)(=O)=O,0.0024
5,C=CC(=O)N1CC[C@@H](Oc2cc3c(Nc4ccc(F)c(Cl)c4F)ncnc3cc2OC)C1,0.222
6,C=CC(=O)N1CC[C@H](Oc2ccc3ncnc(Nc4ccc(OCc5cccc(F)c5)c(Cl)c4)c3c2)C1,0.015
7,C=CC(=O)N1CC[C@H](Oc2cc3c(Nc4ccc(OCc5ccccn5)c(Cl)c4)ncnc3cc2OC)C1,0.014
